Source: ChEMBL document CHEMBL5506008, “Synthesis and biological evaluation of 1-phenyl-tetrahydro-β-carboline-based first dual PRMT5/EGFR inhibitors as potential anticancer agents” (Eur J Med Chem, 2024)

What was measured:
Assay type in all cases: functional
[1] = system: MCF7; assay: Induction of cell cycle arrest in human MCF7 cells assessed as accumulation of cells at G1 phase at 25 nM incubated for 48 hrs by PI/RNase staining based flow cytometry analysis (reference value: 48.01%)
[2] = system: MCF7; assay: Induction of cell cycle arrest in human MCF7 cells assessed as accumulation of cells at S phase at 25 nM incubated for 48 hrs by PI/RNase staining based flow cytometry analysis (reference value: 44.87%)
[3] = system: MCF7; assay: Induction of cell cycle arrest in human MCF7 cells assessed as accumulation of cells at G2 phase at 25 nM incubated for 48 hrs by PI/Rnase staining based flow cytometry analysis (reference value: […]%)
[4] = system: MCF7; assay: Induction of cell cycle arrest in human MCF7 cells assessed as accumulation of cells at G1 phase at 50 nM incubated for 48 hrs by PI/RNase staining based flow cytometry analysis (reference value: 48.01%)
[5] = system: MCF7; assay: Induction of cell cycle arrest in human MCF7 cells assessed as accumulation of cells at S phase at 50 nM incubated for 48 hrs by PI/RNase staining based flow cytometry analysis (reference value: 44.87%)
[6] = system: MCF7; assay: Induction of cell cycle arrest in human MCF7 cells assessed as accumulation of cells at G2 phase at 50 nM incubated for 48 hrs by PI/Rnase staining based flow cytometry analysis (reference value: […]%)
[7] = system: MCF7; assay: Induction of apoptosis in human MCF7 cells assessed as live cells at 25 nM measured after 48 hrs by Annexin V-FITC staining based flow cytometry analysis (reference value: 99.26%)
[8] = system: MCF7; assay: Induction of apoptosis in human MCF7 cells assessed as early apoptotic cells at 25 nM measured after 48 hrs by Annexin V-FITC staining based flow cytometry analysis (reference value: 0.58%)
[9] = system: MCF7; assay: Induction of apoptosis in human MCF7 cells assessed as late apoptotic cells at 25 nM measured after 48 hrs by Annexin V-FITC staining based flow cytometry analysis (reference value: 0.14%)
[10] = system: MCF7; assay: Induction of apoptosis in human MCF7 cells assessed as dead cells at 25 nM measured after 48 hrs by Annexin V-FITC staining based flow cytometry analysis (reference value: 0.02%)
[11] = system: MCF7; assay: Induction of apoptosis in human MCF7 cells assessed as live cells at 50 nM measured after 48 hrs by Annexin V-FITC staining based flow cytometry analysis (reference value: 99.26%)
[12] = system: MCF7; assay: Induction of apoptosis in human MCF7 cells assessed as early apoptotic cells at 50 nM measured after 48 hrs by Annexin V-FITC staining based flow cytometry analysis (reference value: 0.58%)
[13] = system: MCF7; assay: Induction of apoptosis in human MCF7 cells assessed as late apoptotic cells at 50 nM measured after 48 hrs by Annexin V-FITC staining based flow cytometry analysis (reference value: 0.14%)
[14] = system: MCF7; assay: Induction of apoptosis in human MCF7 cells assessed as dead cells at 50 nM measured after 48 hrs by Annexin V-FITC staining based flow cytometry analysis (reference value: 0.02%)

Work on `O=C(NC[C@H](O)CN1CCc2ccccc2C1)c1cc(NC2COC2)ncn1` yielded an Activity [1] of 56.22%, an Activity [2] of 43.56% and an Activity [3] of 0.13%. For the same compound, the Activity [4] was 66.11%, the Activity [5] was 22.78% and the Activity [6] was 9.98%. For the same compound, the Activity [7] was 96.29%, the Activity [8] was 1.41% and the Activity [9] was 0.83%. It also gave an Activity [10] of 1.47%, an Activity [11] of 88.73% and an Activity [12] of 3.79%. For the same compound, the Activity [13] was 4.31% and the Activity [14] was 3.17%.
